We go through ten molecules from publication PMC6465675, “Design, Synthesis, Antiviral Evaluation, and SAR Studies of New 1-(Phenylsulfonyl)-1H-Pyrazol−4-yl-Methylaniline Derivatives” (Frontiers in Chemistry, 2019).

Each structure is given as a SMILES string. Entries after “also recorded” stand apart in the source; their conditions may differ.

One data set relates to CVB-5. Kind of data set: microbe, parasite or virus in culture. The class given is cell-based, Coxsackievirus B5. The note with it: Enterovirus B, Vero 76, read-out: CVB-5 EC50.
Another data set concerns Sb-1. Kind of data set: microbe, parasite or virus in culture. The class given is cell-based, Poliovirus type-1, Sabin strain. The note with it: Enterovirus C, Vero 76, read-out: Sb-1 EC50.
Another data set deals with VV. Kind of data set: microbe, parasite or virus in culture. In kind it is cell-based. The note with it: Orthopoxvirus vaccinia, Vero 76, read-out: VV EC50.
The test system of another data set is HSV-1. The experiment in a line: microbe, parasite or virus in culture. In kind it is cell-based, human herpesvirus 1. To be noted: Human alphaherpesvirus 1, Vero 76, read-out: HSV-1 EC50.
The next data set relates to VSV. Kind of data set: microbe, parasite or virus in culture. In kind it is cell-based. To be noted: Vesicular stomatitis virus, Vero 76, read-out: VSV EC50.
The subject of data set [1] is YFV.
Data set [2] in a line: in vitro. To be noted: Mesocricetus auratus (hamster).
A short description of data set [3]: in vitro. To be noted: Bos taurus (cattle).
A short description of data set [4]: in vitro. To be noted: human.
The subject of data set [5] is YFV. The experiment in a line: microbe, parasite or virus in culture. To be noted: Yellow fever virus, BHK, read-out: YFV EC50.
Data set [6] relates to RSV. The experiment in a line: microbe, parasite or virus in culture. The note with it: human respiratory syncytial virus, Vero 76, read-out: RSV EC50.
For a further data set, the system named is HIV-1. Kind of data set: microbe, parasite or virus in culture. To be noted: Human immunodeficiency virus 1, MT4, read-out: HIV-1 EC50.
Data set [7] deals with YFV. The class given is cell-based, Yellow Fever Virus.
Data set [8] relates to BVDV.
For data set [9], the system named is RSV.
Data set [10] can be described thus: in vitro. To be noted: Cercopithecus aethiops (monkey), Vero76 CC50.
Data set [11] has as its system BVDV. Kind of data set: microbe, parasite or virus in culture. The note with it: Bovine viral diarrhea virus isolates and strains, MDBK, read-out: BVDV EC50.
Data set [12] deals with DENV-2.
Data set [13] has as its system WNV.
In data set [14] the test system is DENV-2. The experiment in a line: microbe, parasite or virus in culture. To be noted: Dengue virus, DENV2, BHK, read-out: DENV-2 EC50.
Data set [15] deals with WNV. Kind of data set: microbe, parasite or virus in culture. The note with it: West Nile virus, BHK, read-out: WNV EC50.
Another data set concerns Reo-1. In kind it is cell-based, reovirus type-1.

In turn, `O=S(=O)(c1ccccc1)n1cc(CNc2ccc(Br)cc2)c(-c2ccccc2)n1` [7c, 4-Bromo-N-[(3-phenyl-1-(phenylsulfonyl)-1H-pyrazol-4-yl)methyl]aniline] showed a melting point of 122 °C. Besides, in the data set on CVB-5, the half-maximal effective concentration (EC50) is 24 ± 11 µM. In addition, the EC50 with Sb-1 was > 85 µM. In addition, the EC50 in the data set on VV is > 85 µM. The 50% effective concentration (EC50) with HSV-1 is > 85 µM. Besides, the EC50 with VSV is > 85 µM. In addition, the “SI CC50/EC50 (YFV)” value in the data set on YFV [1] was >16.9. Besides, in “in vitro [2]”, the CC50 was > 100 µM. Further, the CC50 in the data set “in vitro [3]” is > 100 µM. The same molecule returned a CC50 in “in vitro [4]” of 20 µM. In addition, the EC50 in the data set on YFV [5] amounted to 5.9 ± 0.2 µM. In the data set with RSV [6], the EC50 was > 3 µM. Also, the concentration for a half-maximal effect (EC50) in the data set on HIV-1 was > 20 µM.

As for `O=S(=O)(c1ccccc1)n1cc(CNc2ccccc2)c(-c2ccc(Br)cc2)n1` [7e, N-[(3-(4-Bromophenyl)-1-(phenylsulfonyl)-1H-pyrazol-4-yl)methyl]aniline], the melting point lay within 110 to 111 °C. For the same molecule, the EC50 with CVB-5 is > 87 µM. In the data set with Sb-1, the EC50 was > 87 µM. In the data set on VV, the half-maximal effective concentration (EC50) is > 87 µM. The EC50 in the data set on HSV-1 was > 87 µM. For the same molecule, in the data set with VSV, the concentration giving a half-maximal response (EC50) is > 87 µM. In addition, in the data set with YFV [7], the “Effect on YFV titer, compound added post infection” value is “achieved the highest reduction of virus titer when added 2 h post infection and maintained up to 4 h post infection; also recorded: retained its inhibitory activity when added at any time p.i; also recorded: highest reduction of virus yield was observed when 7e was added 2 h post infection and maintained up to 4 h post infection”; the “Effect on YFV titer, compound present in pre-treatment or during infection” value is reported as “reduced the YFV titer when present in the pre-treatment or during the 2 h of infection”. For the same molecule, the “SI CC50/EC50 (BVDV)” value in the data set with BVDV [8] is given as >5.1. In addition, the “SI CC50/EC50 (YFV)” value with YFV [1] is reported as >27.8. For the same molecule, in the data set on RSV [9], the “SI CC50/EC50 (RSV)” value was 4.9. Further, in “in vitro [2]”, the CC50 is > 100 µM. Also, the CC50 in the data set “in vitro [3]” is > 100 µM. For the same molecule, the CC50 in “in vitro [10]” stood at 87 ± 1 µM. The CC50 in the data set “in vitro [4]” is > 100 µM. For the same molecule, the 50% effective concentration (EC50) in the data set with BVDV [11] is 19.5 ± 2.1 µM. Besides, the EC50 in the data set on YFV [5] is 3.6 ± 0.8 µM. Besides, in the data set with RSV [6], the EC50 stood at 17.8 ± 1.8 µM. For the same molecule, the EC50 in the data set on HIV-1 worked out at 20 ± 2.4 µM.

For the molecule `Cc1ccc(NCc2cn(-c3ccccc3)nc2-c2ccc(C(F)(F)F)cc2)cc1` [1o], in the data set with DENV-2 [12], the “SI CC50/EC50 (DENV-2)” value is on record as 6.2. Besides, the “SI CC50/EC50 (WNV)” value in the data set on WNV [13] was found to be 1.5. In the data set “in vitro [2]”, this molecule came in with a CC50 of 88 ± 0.5 µM. Further, the EC50 with DENV-2 [14] came to 14.3 ± 0.7 µM; in the data set with WNV [15], 59 ± 1.1 µM.

Take `Cc1ccc(NCc2cn(-c3ccccc3)nc2-c2ccc(Cl)cc2)cc1` [1n]: the “SI CC50/EC50 (DENV-2)” value in the data set with DENV-2 [12] was >9.0. For the same molecule, the “SI CC50/EC50 (WNV)” value with WNV [13] is >2.6. In addition, the CC50 in the data set “in vitro [2]” was > 100 µM. Besides, the results for the EC50 in the data set with DENV-2 [14] and in the data set on WNV [15] were 11.1 ± 1.6 µM and 39 ± 1 µM, respectively.

Consider `C[C@@]1(O)[C@H](O)[C@@H](CO)O[C@H]1n1cnc2c(=O)[nH]c(N)nc21` [NM 108, 2′-C-methylguanosin, reference compound], for which the “SI CC50/EC50 (DENV-2)” value in the data set on DENV-2 [12] came out at 50.0. In addition, in the data set with WNV [13], the “SI CC50/EC50 (WNV)” value was 85.7. Also, in “in vitro [2]”, the CC50 was found to be 60 ± 3 µM. The concentration for a half-maximal effect (EC50) was found to be 1.2 ± 0.1 µM in the data set with DENV-2 [14] and 0.7 ± 0.2 µM with WNV [15].

For `O=S(=O)(c1ccccc1)n1cc(CNc2ccc(Cl)cc2)c(-c2ccc(Br)cc2)n1` [7f, 4-Chloro-N-[(3-(4-bromophenyl)-1-(phenysulfonyl)-1H-pyrazol-4-yl)methyl]aniline], the melting point is 137 to 138 °C. Besides, the EC50 in the data set on CVB-5 is > 90 µM. Moreover, in the data set with Sb-1, the EC50 was > 90 µM. Besides, the EC50 in the data set on VV was > 90 µM. Moreover, the EC50 with HSV-1 was > 90 µM. The half-maximal effective concentration (EC50) in the data set on VSV is > 90 µM. Besides, the “SI CC50/EC50 (YFV)” value in the data set on YFV [1] was >25.0. Moreover, the “SI CC50/EC50 (RSV)” value in the data set with RSV [9] is reported as 5.9. Also, the CC50 in “in vitro [2]” is > 100 µM. In addition, in “in vitro [3]”, the CC50 was > 100 µM. In addition, in “in vitro [10]”, the CC50 was 90 ± 2 µM. The CC50 in “in vitro [4]” is > 100 µM. The half-maximal effective concentration (EC50) in the data set on YFV [5] stood at 4 ± 0.7 µM. In addition, in the data set with RSV [6], the EC50 was found to be 15.3 ± 2.5 µM.

Consider `C[C@@]1(O)[C@H](O)[C@@H](CO)O[C@H]1n1ccc(N)nc1=O` [NM107, 2′-C-methylcitidine], for which the EC50 in the data set on Reo-1 turned out to be 7.5 ± 1.5 µM. The CC50 in the data set on BHK-21 cells is > 100 µM.

As to `O=c1cnn([C@@H]2O[C@H](CO)[C@@H](O)[C@H]2O)c(=O)[nH]1` [6-Azauridine, reference compound], the “Effect on YFV titer, compound added post infection” value in the data set with YFV [7] is listed as “lost its effectiveness when added after the infection”. Besides, in the data set on YFV [7], the “Effect on YFV titer, compound present in pre-treatment or during infection” value is reported as “reduced the YFV titer when present in the pre-treatment or during the 2 h of infection”. The “SI CC50/EC50 (RSV)” value in the data set with RSV [9] turned out to be 7.2. Moreover, the CC50 was > 100 µM in “in vitro [2]” and 9.3 ± 1.6 µM in the data set “in vitro [10]”. The concentration for a half-maximal effect (EC50) in the data set on YFV [5] was found to be 46 ± 1.5 µM; in the data set with RSV [6] it was 1.3 ± 0.3 µM.

With `Clc1ccc(NCc2cn(-c3ccccc3)nc2-c2ccc(Cl)cc2)cc1` [1i], the “SI CC50/EC50 (DENV-2)” value with DENV-2 [12] came out at 5.0. Further, the “SI CC50/EC50 (WNV)” value in the data set on WNV [13] worked out at 1.3. In addition, the CC50 in “in vitro [2]” is 73 ± 1 µM. Also, the concentration giving a half-maximal response (EC50) was determined as 14.5 ± 3.5 µM in the data set on DENV-2 [14] and 57.5 ± 0.5 µM with WNV [15].

On to `Brc1ccc(NCc2cn(-c3ccccc3)nc2-c2ccc(Br)cc2)cc1` [1g], for which the “SI CC50/EC50 (DENV-2)” value with DENV-2 [12] was >4.3. Besides, in the data set with WNV [13], the “SI CC50/EC50 (WNV)” value is listed as >1.25. Moreover, the CC50 in the data set “in vitro [2]” is > 100 µM. Further, the values for the EC50 with DENV-2 [14] and in the data set on WNV [15] were 23 ± 6 µM and 80 ± 8.5 µM, respectively.
